# Experimental data from the supplement of paper PMC10307832.
# Experiments:
# Experiment in all cases: relative viability (nuclei count vs DMSO), 5 days (fraction); higher = more cells survive
# [1] = compound: CS(=O)(=O)CCNCc1ccc(-c2ccc3ncnc(Nc4ccc(OCc5cccc(F)c5)c(Cl)c4)c3c2)o1 [Lapatinib] + N=C(N)NC(=N)NCCc1ccccc1 [Phenformin] (partner 250 µM)
# Method in brief: (§1)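 Values are medians from duplicate plates. Each reflects relative viability, defined as the nuclei count of treated wells over that of vehicle wells. Lung cancer cell lines in 1536-well plates were pin-tool dosed one day after seeding with one drug alone or with a fixed anchor-drug dose plus five library-drug doses (not always all listed) in √10 steps, then fixed, stained and imaged at 4× after 5 days.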
# [2] = compound: CS(=O)(=O)CCNCc1ccc(-c2ccc3ncnc(Nc4ccc(OCc5cccc(F)c5)c(Cl)c4)c3c2)o1 [Lapatinib] + CC1(C)CCC(c2ccc(Cl)cc2)=C(CN2CCN(c3ccc(C(=O)NS(=O)(=O)c4ccc(N[C@H](CCN5CCOCC5)CSc5ccccc5)c(S(=O)(=O)C(F)(F)F)c4)cc3)CC2)C1 [Navitoclax] (partner 0.5 µM)
# Method in brief: as §1
# [3] = compound: CC1=NC=CC(=C1)C2=CC=C(C=C2)CC(=O)NC3=CC=C(C=C3)C4=CN=CC=C4 [Wnt-C59] + Nc1ncn([C@H]2C[C@H](O)[C@@H](CO)O2)c(=O)n1 [Decitabine] (partner 2 µM)
# Method in brief: as §1
# [4] = compound: CC1=NC=CC(=C1)C2=CC=C(C=C2)CC(=O)NC3=CC=C(C=C3)C4=CN=CC=C4 [Wnt-C59] + Cc1nc(Nc2ncc(C(=O)Nc3c(C)cccc3Cl)s2)cc(N2CCN(CCO)CC2)n1 [Dasatinib] (partner 0.075 µM)
# Method in brief: as §1
Cell Line,relative viability ([1]; first compound 0.06325 µM),relative viability ([1]; first compound 0.2 µM),relative viability ([1]; first compound 0.6325 µM),relative viability ([1]; first compound 2 µM),relative viability ([2]; first compound 0.06325 µM),relative viability ([2]; first compound 0.2 µM),relative viability ([2]; first compound 0.6325 µM),relative viability ([2]; first compound 2 µM),relative viability ([3]; first compound 0.001 µM),relative viability ([3]; first compound 0.01 µM),relative viability ([3]; first compound 0.03162 µM),relative viability ([3]; first compound 0.1 µM),relative viability ([4]; first compound 0.001 µM),relative viability ([4]; first compound 0.01 µM),relative viability ([4]; first compound 0.03162 µM),relative viability ([4]; first compound 0.1 µM),relative viability ([1]; first compound 0.02 µM),relative viability ([2]; first compound 0.02 µM)
A-427,0.279,0.346,0.317,0.367,0.977,0.885,0.933,0.957,0.623,0.564,0.615,0.588,0.71,0.682,0.768,0.798,–,–
H3255,0.327,0.314,0.299,0.224,0.512,0.37,0.464,0.111,0.62,0.601,0.668,0.515,0.425,0.359,0.32,0.335,0.37,0.476
NCI-H23,–,0.792,0.805,0.761,–,0.836,0.777,0.615,0.292,0.29,0.35,0.325,0.885,0.734,0.829,0.698,–,–
NCI-H2087,0.354,0.485,0.552,0.406,0.96,1.06,1,0.962,0.245,0.28,0.281,0.336,0.733,0.868,0.943,0.806,–,0.932
SK-LU-1,0.484,0.547,0.674,0.512,0.831,0.747,0.876,1.29,0.657,0.675,0.694,0.657,0.184,0.187,0.198,0.187,0.464,–
NCI-H2347,0.376,0.498,0.641,0.337,0.807,0.826,0.731,0.769,0.629,0.628,0.643,0.602,0.35,0.295,0.327,0.306,–,0.548
NCI-H596,0.654,0.748,0.762,0.685,0.95,0.922,0.97,0.706,0.996,0.918,1.07,1.42,0.609,0.477,0.554,0.611,–,0.978
ChaGo-K-1,0.386,0.465,0.454,0.414,1.15,0.781,0.99,0.457,0.56,0.484,0.534,0.534,0.659,0.606,0.65,0.606,0.379,–
LU99A,0.712,0.743,0.866,0.792,0.63,0.805,0.886,0.725,0.943,0.937,0.897,0.878,0.55,0.506,0.501,0.538,0.379,0.829
SW 1573,0.338,0.346,0.347,0.354,0.974,1.16,0.92,0.882,0.449,0.453,0.583,0.537,0.557,0.699,0.67,0.314,0.398,0.902
NCI-H1734,0.288,0.374,0.451,0.414,0.691,0.802,0.88,0.778,0.501,0.452,0.558,0.523,0.418,0.452,0.516,0.442,0.407,–
NCI-H2126,0.393,0.529,0.536,0.406,0.799,0.764,0.806,0.739,0.654,0.576,0.567,0.575,0.658,0.592,0.647,0.61,–,–
NCI-H838,0.381,0.675,0.683,0.511,1.06,1.16,1.17,1,0.459,0.509,0.453,0.402,0.291,0.29,0.288,0.302,0.685,1.13
HCC-78,0.631,0.588,0.856,0.654,0.651,0.752,0.57,0.699,0.695,0.754,0.734,0.641,0.392,0.428,0.387,0.419,–,–
NCI-H460,0.48,0.52,0.504,0.446,1.08,1.08,1.11,1.1,0.503,0.488,0.594,0.465,0.482,0.483,0.524,0.531,0.487,0.966
NCI-H2023,–,0.417,0.429,0.307,0.885,0.894,1,0.77,0.227,0.244,0.251,0.221,0.563,0.538,0.628,0.333,0.395,0.95

Cell Line,relative viability ([1]; first compound 0.06325 µM),relative viability ([1]; first compound 0.2 µM),relative viability ([1]; first compound 0.6325 µM),relative viability ([1]; first compound 2 µM),relative viability ([2]; first compound 0.06325 µM),relative viability ([2]; first compound 0.2 µM),relative viability ([2]; first compound 0.6325 µM),relative viability ([2]; first compound 2 µM),relative viability ([3]; first compound 0.001 µM),relative viability ([3]; first compound 0.01 µM),relative viability ([3]; first compound 0.03162 µM),relative viability ([3]; first compound 0.1 µM),relative viability ([4]; first compound 0.001 µM),relative viability ([4]; first compound 0.01 µM),relative viability ([4]; first compound 0.03162 µM),relative viability ([4]; first compound 0.1 µM),relative viability ([1]; first compound 0.02 µM),relative viability ([2]; first compound 0.02 µM)
HOP-62,0.641,0.635,0.631,0.695,0.993,1.09,1.1,0.99,0.19,0.238,0.227,0.231,0.696,0.66,0.716,0.697,0.499,0.672
NCI-H2009,0.484,0.507,0.513,0.457,1.21,1.21,1.17,1.14,0.35,0.442,0.352,0.379,0.31,0.331,0.311,0.311,0.528,1.11
NCI-H1915,0.375,0.384,0.361,0.39,0.822,0.752,0.79,0.81,0.261,0.261,0.262,0.251,0.315,0.316,0.303,0.317,–,–
NCI-H3122,0.379,0.392,0.385,0.33,1,1.01,0.968,1.01,0.453,0.477,0.476,0.385,0.824,0.951,0.893,0.894,–,1.01
NCI-H2085,0.64,0.735,0.61,0.458,0.925,0.987,1.01,0.805,0.623,0.571,0.494,0.601,0.282,0.236,0.269,0.249,–,1.06
NCI-H1395,0.431,0.442,0.444,0.432,1.05,1.14,1.62,1.14,0.743,0.76,0.764,0.704,0.406,0.398,0.423,0.444,0.45,–
NCI-H1650,0.313,0.461,0.31,0.307,1.11,1.24,1.01,0.761,0.494,0.482,0.407,0.408,0.302,0.333,0.309,0.322,0.442,1.06
EKVX,0.218,0.242,0.235,0.146,0.916,0.809,0.77,0.199,0.313,–,0.417,0.374,0.575,0.511,0.527,0.451,0.185,0.859
HCC-15,0.398,0.521,0.498,0.484,0.679,0.704,0.635,0.599,0.621,0.607,0.661,0.606,0.667,0.634,0.644,0.574,–,–
LK-2,–,0.606,0.663,0.419,–,0.84,0.88,0.905,0.319,0.329,0.319,0.323,0.379,0.372,0.268,0.292,–,0.908
SK-MES-1,0.684,0.684,0.563,0.306,–,1.25,0.783,0.573,0.386,0.403,0.366,0.355,0.393,0.264,0.39,0.337,0.62,1.13
COR-L23,0.421,0.474,0.455,0.42,0.938,1.09,0.887,0.854,0.489,0.47,0.493,0.525,0.483,0.571,0.641,0.413,0.419,0.943
NCI-H1355,0.37,0.455,0.428,0.367,0.861,0.824,0.906,0.498,0.361,0.354,0.349,0.337,0.725,0.533,0.711,0.617,–,–
NCI-H441,0.43,0.946,0.901,0.873,0.223,0.94,0.514,0.604,0.232,0.226,0.246,0.166,0.56,0.637,0.615,0.298,–,–
NCI-H322M,0.736,0.736,0.693,0.551,1.07,1.09,1.16,1.09,0.729,0.655,0.666,0.63,0.266,0.26,0.216,0.228,0.805,1.25
